Laboratory results: ChEMBL document CHEMBL4765237, “Structural optimization and structure-activity relationship studies of N-phenyl-7,8-dihydro-6H-pyrimido[5,4-b][1,4]oxazin-4-amine derivatives as a new class of inhibitors of RET and its drug resistance mutants” (Eur J Med Chem, 2018)
Active and inactive are the calls of the source. No cut-off for these calls is given here.

Legend:
BaF3 [1] = assay: Growth inhibition of mouse BaF3 cells incubated for 3 days by MTT assay; assay type: functional; settings: BaF3, 72 h, time 3 day
[2] = Clearance in Sprague-Dawley rat at 10 mg/kg, po measured upto 24 hrs by LC-MS/MS analysis; assay type: ADME, organism-based; settings: in vivo
MDA-MB-231 = assay: Growth inhibition of human MDA-MB-231 cells incubated for 3 days by MTT assay; assay type: functional; settings: MDA-MB-231, 72 h, time 3 day
[3] = Growth inhibition of […] BaF3 cells harboring BCR abl mutant incubated for 3 days by MTT assay; assay type: functional; settings: BaF3, 72 h; time 3 day
[4] = Growth inhibition of human Ocut-2C cells incubated for 3 days by MTT assay; assay type: functional; settings: OCUT2C, 72 h, time 3 day
[5] = Growth inhibition of human C643 cells incubated for 3 days by MTT assay; assay type: functional; settings: C643, 72 h, time 3 day
BGC-823 = assay: Growth inhibition of human BGC-823 cells incubated for 3 days by MTT assay; assay type: functional; settings: BGC-823, 72 h, time 3 day
BaF3 [6] = assay type: functional; settings: Mus musculus, BaF3, 72 h; time 3 day
[7] = Growth inhibition of mouse L929 cells incubated for 3 days by MTT assay; assay type: cell-based; settings: time 3 day
L02 = assay: Growth inhibition of human L02 cells incubated for 3 days by MTT assay; assay type: functional; settings: L02, 72 h, time 3 day
[8] = Inhibition of colony formation in […] NIH3T3 cells at > 1 uM incubated for 10 days by crystal violet assay relative to control; assay type: functional; settings: dose microM >1; time 10 day
Ephrin type-B receptor 1 = Ephrin type-B receptor 1 (Homo sapiens, UniProt P54762); assay: Inhibition of recombinant human EphB1 (564 to end residues) using KVEKIGEGTYGVVYK as substrate incubated for 40 mins in presence of [gamma-33ATP] by scintillation counting based radiometry assay
[9] = target: Interleukin-1 receptor-associated kinase 1 (Homo sapiens, UniProt P51617); assay: Inhibition of human IRAK1 (194 to end residues) using myelin basic protein as substrate after 40 mins by [gamma-33ATP] radiometric assay
Interleukin-1 receptor-associated kinase 1, sequence (P51617 whole entry): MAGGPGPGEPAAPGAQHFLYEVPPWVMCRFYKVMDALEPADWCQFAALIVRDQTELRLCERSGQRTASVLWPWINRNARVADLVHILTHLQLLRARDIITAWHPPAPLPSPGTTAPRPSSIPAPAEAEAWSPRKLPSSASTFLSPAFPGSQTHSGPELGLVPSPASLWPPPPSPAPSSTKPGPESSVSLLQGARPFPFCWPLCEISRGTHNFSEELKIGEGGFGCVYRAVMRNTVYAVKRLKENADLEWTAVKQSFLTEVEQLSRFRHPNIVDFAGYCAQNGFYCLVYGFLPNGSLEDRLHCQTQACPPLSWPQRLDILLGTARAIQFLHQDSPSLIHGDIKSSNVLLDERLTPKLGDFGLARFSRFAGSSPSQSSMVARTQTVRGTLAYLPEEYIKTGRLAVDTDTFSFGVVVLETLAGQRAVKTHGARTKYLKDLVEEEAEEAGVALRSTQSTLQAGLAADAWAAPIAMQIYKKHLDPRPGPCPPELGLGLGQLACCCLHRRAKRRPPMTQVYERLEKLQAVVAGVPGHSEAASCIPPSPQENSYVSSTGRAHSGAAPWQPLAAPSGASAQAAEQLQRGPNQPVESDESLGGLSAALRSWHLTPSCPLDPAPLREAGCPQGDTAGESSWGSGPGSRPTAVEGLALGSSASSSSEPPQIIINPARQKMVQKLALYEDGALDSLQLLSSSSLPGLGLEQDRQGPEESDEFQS

[10] = target: High affinity nerve growth factor receptor (Homo sapiens, UniProt P04629)
[11] = target: Tyrosine-protein kinase receptor UFO (Homo sapiens, UniProt P30530); assay: Inhibition of recombinant human Axl (473 to end residues) using KKSRGDYMTMQIG as substrate incubated for 40 mins in presence of [gamma-33ATP] by scintillation counting based radiometry assay
Tyrosine-protein kinase receptor UFO, sequence (P30530 whole entry): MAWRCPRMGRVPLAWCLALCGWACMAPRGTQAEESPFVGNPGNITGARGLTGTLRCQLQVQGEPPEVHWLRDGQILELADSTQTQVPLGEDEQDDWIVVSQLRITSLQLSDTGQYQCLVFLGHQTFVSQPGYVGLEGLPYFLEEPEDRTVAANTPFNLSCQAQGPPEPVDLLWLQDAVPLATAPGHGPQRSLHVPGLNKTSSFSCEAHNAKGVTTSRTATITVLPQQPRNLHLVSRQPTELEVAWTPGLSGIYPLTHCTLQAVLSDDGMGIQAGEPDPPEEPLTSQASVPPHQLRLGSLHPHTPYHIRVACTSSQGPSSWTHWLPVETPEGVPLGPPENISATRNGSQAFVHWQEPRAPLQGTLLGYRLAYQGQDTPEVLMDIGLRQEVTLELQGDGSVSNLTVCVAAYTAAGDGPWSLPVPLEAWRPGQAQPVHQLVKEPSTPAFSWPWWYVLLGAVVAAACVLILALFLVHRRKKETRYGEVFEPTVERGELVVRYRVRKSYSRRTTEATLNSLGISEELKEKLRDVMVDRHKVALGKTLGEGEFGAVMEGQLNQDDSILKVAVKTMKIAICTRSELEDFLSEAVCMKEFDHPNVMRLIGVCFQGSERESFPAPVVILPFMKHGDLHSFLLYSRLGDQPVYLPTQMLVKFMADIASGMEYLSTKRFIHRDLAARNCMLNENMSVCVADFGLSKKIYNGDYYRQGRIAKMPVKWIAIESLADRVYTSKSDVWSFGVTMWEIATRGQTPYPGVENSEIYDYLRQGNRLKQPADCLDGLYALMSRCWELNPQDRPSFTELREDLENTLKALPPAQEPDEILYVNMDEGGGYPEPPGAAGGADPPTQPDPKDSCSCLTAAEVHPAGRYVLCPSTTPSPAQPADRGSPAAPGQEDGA

CDK9/cyclin T1 = CDK9/cyclin T1 (Homo sapiens, UniProt P50750); assay: Inhibition of recombinant full length human CDK9/cyclinT1 using KTFCGTPEYLAPE as substrate incubated for 40 mins in presence of [gamma-33ATP] by scintillation counting based radiometry assay; assay type: protein-complex assay
CDK9/cyclin T1, sequence (O60563 whole entry, the tested form may be a part): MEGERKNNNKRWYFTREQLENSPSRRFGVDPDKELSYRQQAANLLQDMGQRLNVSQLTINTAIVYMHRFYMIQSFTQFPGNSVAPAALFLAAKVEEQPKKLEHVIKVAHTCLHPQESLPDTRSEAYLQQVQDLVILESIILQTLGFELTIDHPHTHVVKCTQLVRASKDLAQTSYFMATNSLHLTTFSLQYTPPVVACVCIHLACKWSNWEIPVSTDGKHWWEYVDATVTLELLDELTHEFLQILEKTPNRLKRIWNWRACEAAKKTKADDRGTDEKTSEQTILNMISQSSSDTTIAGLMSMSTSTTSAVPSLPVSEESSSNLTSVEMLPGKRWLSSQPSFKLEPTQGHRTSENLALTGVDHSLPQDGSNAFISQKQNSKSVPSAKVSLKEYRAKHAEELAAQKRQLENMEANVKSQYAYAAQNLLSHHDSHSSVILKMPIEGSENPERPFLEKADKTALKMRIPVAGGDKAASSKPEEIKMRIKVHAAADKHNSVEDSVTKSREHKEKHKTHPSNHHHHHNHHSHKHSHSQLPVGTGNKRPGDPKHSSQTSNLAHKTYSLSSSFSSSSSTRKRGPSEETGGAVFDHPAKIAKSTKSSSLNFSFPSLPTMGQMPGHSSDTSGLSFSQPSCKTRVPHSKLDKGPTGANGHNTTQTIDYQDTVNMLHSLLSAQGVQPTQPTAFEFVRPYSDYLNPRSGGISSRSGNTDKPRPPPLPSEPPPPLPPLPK
CDK9/cyclin T1, sequence (P50750 whole entry, the tested form may be a part): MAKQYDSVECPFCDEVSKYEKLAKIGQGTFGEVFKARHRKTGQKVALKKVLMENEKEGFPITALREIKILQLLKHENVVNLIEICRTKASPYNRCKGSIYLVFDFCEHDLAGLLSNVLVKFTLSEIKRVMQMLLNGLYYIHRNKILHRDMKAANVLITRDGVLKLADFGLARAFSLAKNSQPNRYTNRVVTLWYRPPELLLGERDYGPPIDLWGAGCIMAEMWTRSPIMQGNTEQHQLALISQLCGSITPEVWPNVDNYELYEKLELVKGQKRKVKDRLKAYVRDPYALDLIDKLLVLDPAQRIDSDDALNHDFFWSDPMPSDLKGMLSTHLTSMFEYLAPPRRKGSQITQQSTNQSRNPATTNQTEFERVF

[12] = target: Discoidin domain-containing receptor 2 (Homo sapiens, UniProt Q16832); assay: Inhibition of recombinant human DDR2 (467 to end residues) using KKSRGDYMTMQIG as substrate incubated for 40 mins in presence of [gamma-33ATP] by scintillation counting based radiometry assay
Ephrin type-A receptor 3 = Ephrin type-A receptor 3 (Homo sapiens, UniProt P29320); assay: Inhibition of recombinant human EphA3 (578 to end residues) using poly(Glu, Tyr) 4:1 as substrate incubated for 40 mins in presence of [gamma-33ATP] by scintillation counting based radiometry assay
Ephrin type-A receptor 3, sequence (P29320 whole entry): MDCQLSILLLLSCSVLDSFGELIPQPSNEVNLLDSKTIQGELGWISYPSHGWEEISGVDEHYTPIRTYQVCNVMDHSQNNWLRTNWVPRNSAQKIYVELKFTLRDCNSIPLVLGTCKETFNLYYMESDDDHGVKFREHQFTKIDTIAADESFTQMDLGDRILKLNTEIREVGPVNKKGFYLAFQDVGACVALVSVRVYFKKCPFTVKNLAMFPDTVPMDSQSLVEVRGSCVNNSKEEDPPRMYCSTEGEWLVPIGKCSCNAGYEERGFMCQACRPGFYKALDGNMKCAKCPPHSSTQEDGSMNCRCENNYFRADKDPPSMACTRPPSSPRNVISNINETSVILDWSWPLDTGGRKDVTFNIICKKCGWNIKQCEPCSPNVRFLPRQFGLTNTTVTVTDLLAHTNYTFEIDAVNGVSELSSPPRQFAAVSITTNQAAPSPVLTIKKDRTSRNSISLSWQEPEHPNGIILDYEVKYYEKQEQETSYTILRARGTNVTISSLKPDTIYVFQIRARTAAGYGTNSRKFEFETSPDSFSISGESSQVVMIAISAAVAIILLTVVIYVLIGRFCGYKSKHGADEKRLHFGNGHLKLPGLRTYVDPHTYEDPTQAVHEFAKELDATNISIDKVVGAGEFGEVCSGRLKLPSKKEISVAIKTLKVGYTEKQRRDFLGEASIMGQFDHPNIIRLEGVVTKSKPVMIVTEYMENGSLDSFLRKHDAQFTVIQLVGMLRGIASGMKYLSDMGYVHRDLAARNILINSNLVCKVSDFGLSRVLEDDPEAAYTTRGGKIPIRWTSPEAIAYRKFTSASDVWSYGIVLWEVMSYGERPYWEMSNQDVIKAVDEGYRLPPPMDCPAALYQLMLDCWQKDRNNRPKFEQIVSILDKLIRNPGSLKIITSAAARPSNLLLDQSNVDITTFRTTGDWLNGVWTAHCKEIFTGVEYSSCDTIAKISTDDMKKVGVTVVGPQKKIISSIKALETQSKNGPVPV

[13] = target: MAP kinase-interacting serine/threonine-protein kinase 2 (Homo sapiens, UniProt Q9HBH9); assay: Inhibition of recombinant human MNK2 using myelin basic protein as substrate incubated for 40 mins in presence of [gamma-33ATP by scintillation counting based radiometry assay
MAP kinase-interacting serine/threonine-protein kinase 2, sequence (Q9HBH9 whole entry): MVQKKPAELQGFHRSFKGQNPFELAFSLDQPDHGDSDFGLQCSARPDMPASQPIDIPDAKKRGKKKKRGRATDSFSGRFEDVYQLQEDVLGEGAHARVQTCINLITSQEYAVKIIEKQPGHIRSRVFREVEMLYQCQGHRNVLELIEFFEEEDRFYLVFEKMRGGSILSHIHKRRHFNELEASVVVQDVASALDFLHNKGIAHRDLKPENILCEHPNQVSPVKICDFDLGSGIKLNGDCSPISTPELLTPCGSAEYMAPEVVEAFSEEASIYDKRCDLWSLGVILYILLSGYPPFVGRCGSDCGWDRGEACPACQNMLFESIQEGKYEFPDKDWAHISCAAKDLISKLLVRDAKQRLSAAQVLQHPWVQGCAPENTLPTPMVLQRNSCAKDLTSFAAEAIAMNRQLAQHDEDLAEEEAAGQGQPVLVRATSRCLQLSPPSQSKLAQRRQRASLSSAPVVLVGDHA

[14] = target: Mitogen-activated protein kinase kinase kinase 20 (Homo sapiens, UniProt Q9NYL2); assay: Inhibition of recombinant full-length human ZAK using MBP as substrate incubated for 40 mins in presence of [gamma33P]ATP by scintillation counting based radiometry assay
Mitogen-activated protein kinase kinase kinase 20, sequence (Q9NYL2 whole entry): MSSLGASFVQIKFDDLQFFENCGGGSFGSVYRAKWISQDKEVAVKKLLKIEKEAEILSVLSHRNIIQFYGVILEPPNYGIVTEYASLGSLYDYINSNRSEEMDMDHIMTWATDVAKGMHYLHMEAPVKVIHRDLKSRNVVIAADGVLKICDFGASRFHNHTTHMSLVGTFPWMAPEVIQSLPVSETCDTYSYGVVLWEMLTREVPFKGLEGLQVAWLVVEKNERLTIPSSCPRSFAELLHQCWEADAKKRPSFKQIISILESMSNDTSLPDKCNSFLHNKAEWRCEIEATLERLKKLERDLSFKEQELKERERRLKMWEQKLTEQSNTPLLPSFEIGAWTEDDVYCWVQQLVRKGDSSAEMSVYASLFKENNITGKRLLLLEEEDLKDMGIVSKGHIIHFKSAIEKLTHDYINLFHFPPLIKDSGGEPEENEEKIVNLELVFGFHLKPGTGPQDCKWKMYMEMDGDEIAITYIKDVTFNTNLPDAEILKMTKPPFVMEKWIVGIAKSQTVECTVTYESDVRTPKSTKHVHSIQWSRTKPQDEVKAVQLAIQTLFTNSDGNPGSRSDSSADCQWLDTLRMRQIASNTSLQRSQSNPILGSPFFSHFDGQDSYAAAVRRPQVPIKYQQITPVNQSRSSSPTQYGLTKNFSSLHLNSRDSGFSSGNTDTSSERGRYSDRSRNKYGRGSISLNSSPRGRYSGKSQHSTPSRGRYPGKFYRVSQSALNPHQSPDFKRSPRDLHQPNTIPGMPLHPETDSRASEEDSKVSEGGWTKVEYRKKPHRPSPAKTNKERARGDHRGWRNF

[15] = target: Proto-oncogene tyrosine-protein kinase receptor Ret (Homo sapiens, UniProt P07949)
Mus musculus = species: Mus musculus; settings: NOD-SCID, dose 30.0 mg/kg, time 18.0 day

CC(C)(C)c1cc(NC(=O)Nc2ccc(Nc3ncnc4c3OCCCN4)cc2)no1
GI50 (BaF3 [1]): > 10000 nM
CL/F [2]: 0.383 mL/min/kg
GI50 (MDA-MB-231): > 10000 nM
GI50 [3]: > 10000 nM
GI50 [4]: > 10000 nM
GI50 [5]: > 10000 nM
GI50 (BGC-823): 8470 nM
GI50 (BaF3 [6]): 1130 nM
GI50 at 72 h [7]: > 10000 nM
GI50 (L02): > 10000 nM
inhibition (INH) [8]: 100%
IC50 (Ephrin type-B receptor 1): 388 nM
IC50 [9]: 179 nM
IC50 [10]: 71 nM
IC50 [11]: 708 nM
IC50 (CDK9/cyclin T1): 833 nM
IC50 [12]: 55 nM
IC50 (Ephrin type-A receptor 3): 552 nM
IC50 [13]: 136 nM
IC50 [14]: 19 nM
IC50 [15]: 10 nM
inhibition (Mus musculus): Active
